From patent publication US20250170126A1 (MITSUBISHI TANABE PHARMA CORPORATION, priority 2022, published 2025)

The molecules below were run against Human B0AT1 (Homo sapiens (Human), UniProt Q695T7) (assay: hB0AT1 inhibitory test (phenylalanine uptake)). Conditions: Human B0AT1 stable expression CHO cells; [3H]-L-phenylalanine uptake, phenylalanine 0.25 mM.
Type: cell-based
Method: A test compound dissolved in dimethyl sulfoxide (DMSO) was added to a 96 well plate for solid phase radioactivity measurement containing a scintillator at the bottom of the well (final concentration of DMSO 0.5%). DMSO alone as a control and DMSO containing N-(4-bromophenyl)-3,5-dichloro-2-hydroxybenzamide (final concentration […]) for the is measurement of B0AT1 non-specific uptake were similarly added at 0.5 μL per well. Human B0AT1 stable expression CHO cells suspended in a buffer (buffer containing 96 mM sodium chloride, 2 mM potassium chloride, 1.8 mM calcium chloride, 1 mM magnesium chloride, 0.01% bovine serum albumin, and 10 mM 2-[4-(2-hydroxyethyl)-1-piperazinyl]ethanesulfonic acid) were added by 90 μL to 75000 cells/well. After standing at ordinary temperature for 30 min or longer, the cells were subjected to a phenylalanine uptake experiment. A buffer containing L-phenylalanine and [3,4,5-3H]-L-phenylalanine was added by 10 μL per well (final concentration of phenylalanine 0.25 mM), and the radioactivity of the plate bottom surface at ordinary temperature was measured with a scintillation counter over time, and the radioactivity value after 100 to 200 min was analyzed. A value obtained by subtracting the B0AT1 non-specific uptake from the control uptake was taken as 100%, and the concentration necessary for each test compound to achieve 50% inhibition (IC50 value) was determined by nonlinear regression using a logistic model.

Sequence of Human B0AT1 (Q695T7 whole entry): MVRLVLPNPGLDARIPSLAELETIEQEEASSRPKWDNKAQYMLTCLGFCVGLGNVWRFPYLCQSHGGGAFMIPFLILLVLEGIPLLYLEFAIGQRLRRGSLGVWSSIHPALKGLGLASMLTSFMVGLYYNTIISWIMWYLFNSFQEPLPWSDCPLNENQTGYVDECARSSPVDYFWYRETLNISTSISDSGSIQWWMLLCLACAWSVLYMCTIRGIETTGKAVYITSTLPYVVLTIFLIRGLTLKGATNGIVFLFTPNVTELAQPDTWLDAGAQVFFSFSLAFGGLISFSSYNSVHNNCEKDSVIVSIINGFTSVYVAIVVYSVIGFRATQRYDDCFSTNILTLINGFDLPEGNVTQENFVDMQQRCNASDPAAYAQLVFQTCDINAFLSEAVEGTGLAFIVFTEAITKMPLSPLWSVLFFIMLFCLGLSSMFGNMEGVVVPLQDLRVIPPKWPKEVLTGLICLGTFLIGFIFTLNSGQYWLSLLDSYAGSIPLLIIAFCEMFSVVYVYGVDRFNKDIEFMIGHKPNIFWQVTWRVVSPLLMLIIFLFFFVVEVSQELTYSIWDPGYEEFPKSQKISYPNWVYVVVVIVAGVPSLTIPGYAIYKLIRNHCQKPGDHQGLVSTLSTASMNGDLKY

IC50 [µM] | SMILES
0.17 | COCCN(CC(=O)N(C)C)C(=O)CNC(=O)/C=C/c1ccc(C(F)(F)F)cc1 [I-149, (E)-N-[2-[[2-(dimethylamino)-2-oxoethyl]-(2-methoxyethyl)amino]-2-oxoethyl]-3-[4-(trifluoromethyl)phenyl]prop-2-enamide]
0.044 | O=C(/C=C/c1ccc(C(F)(F)F)cc1)NCC(=O)N1CCn2nc(C(F)(F)F)nc2C1 [I-172]
0.03 | O=C(/C=C/c1ccc(C(F)(F)F)cc1)NCC(=O)N1CCn2nc(CO)cc2C1 [I-173, (E)-N-[2-[2-(hydroxymethyl)-6,7-dihydro-4H-pyrazolo[1,5-a]pyrazin-5-yl]-2-oxo-ethyl]-3-[4-(trifluoromethyl)phenyl]prop-2-enamide]
0.048 | Cc1nc2n(n1)CCN(C(=O)CNC(=O)/C=C/c1ccc(C(F)(F)F)cc1)C2 [I-174]
0.071 | COCCN(Cc1cnccn1)C(=O)CNC(=O)/C=C/c1ccc(C(F)(F)F)cc1 [I-175]
0.185 | O=C(/C=C/c1ccc(C(F)(F)F)cc1)NCC(=O)N1CC[C@H](n2cccn2)C1 [I-176]
0.087 | O=C(/C=C/c1ccc(C(F)(F)F)cc1)NCC(=O)N1CC[C@@H](n2cccn2)C1 [I-177]
0.06 | O=C(/C=C/c1ccc(C(F)(F)F)cc1)NCC(=O)N1Cc2nccnc2C1 [I-178]
0.06 | O=C(/C=C/c1ccc(C(F)(F)F)cc1)NCC(=O)N1CCCn2ccnc2C1 [I-179]
0.02 | O=C(/C=C/c1ccc(C(F)(F)F)cc1)NCC(=O)N1CCn2nccc21 [I-180]
0.06 | C[C@H]1Cn2nccc2CN1C(=O)CNC(=O)/C=C/c1ccc(C(F)(F)F)cc1 [I-181]
0.168 | CC1CN(C(=O)CNC(=O)/C=C/c2ccc(C(F)(F)F)cc2)Cc2ccccc21 (stereo not shown) [I-182]
0.08 | O=C(/C=C/c1ccc(C(F)(F)F)cc1)NCC(=O)N1Cc2ccccc2C(c2ccccc2)C1 (stereo not shown) [I-183]
0.047 | Cc1cc2n(n1)CCCN2C(=O)CNC(=O)/C=C/c1ccc(C(F)(F)F)cc1 [I-184]
0.031 | O=C(/C=C/c1ccc(C(F)(F)F)cc1)NCC(=O)N1CCCc2ncccc21 [I-185]
0.01 | O=C(/C=C/c1ccc(C(F)(F)F)cc1)NCC(=O)N1CCCc2cnccc21 [I-186]
0.026 | CC1CCN(C(=O)CNC(=O)/C=C/c2ccc(C(F)(F)F)cc2)c2ccnn21 (stereo not shown) [I-187]
0.034 | CS(=O)(=O)Nc1ccc2c(c1)CCN(C(=O)CNC(=O)/C=C/c1ccc(C(F)(F)F)cc1)C2 [I-188]
0.035 | NS(=O)(=O)c1ccc2c(c1)CN(C(=O)CNC(=O)/C=C/c1ccc(C(F)(F)F)cc1)CC2 [I-189]
0.021 | N#Cc1cnn2c1CN(C(=O)CNC(=O)/C=C/c1ccc(C(F)(F)F)cc1)CC2 [I-190]
0.031 | O=C(/C=C/c1ccc(C(F)(F)F)cc1)NCC(=O)N1CCc2cccc(C(F)(F)F)c2C1 [I-191]
0.03 | N#Cc1cccc2c1CCN(C(=O)CNC(=O)/C=C/c1ccc(C(F)(F)F)cc1)C2 [I-192]
0.05 | Cc1cccc2c1CN(C(=O)CNC(=O)/C=C/c1ccc(C(F)(F)F)cc1)CC2 [I-193]
0.14 | O=C(/C=C/c1ccc(C(F)(F)F)cc1)NCC(=O)N1CCc2c(cccc2C(F)(F)F)C1 [I-194]

IC50 [µM] | SMILES
0.054 | O=C(/C=C/c1ccc(C(F)(F)F)cc1)NCC(=O)N1CCc2ccc(Br)cc2C1 [I-195]
0.017 | O=C(/C=C/c1ccc(C(F)(F)F)cc1)NCC(=O)N1CCc2cccc(Br)c2C1 [I-196]
0.025 | N#Cc1ccc2c(c1)CN(C(=O)CNC(=O)/C=C/c1ccc(C(F)(F)F)cc1)CC2 [I-197]
0.022 | O=C(/C=C/c1ccc(C(F)(F)F)cc1)NCC(=O)N1CCn2ncc(Cl)c2C1 [I-202]
0.045 | CNC(=O)c1cc2n(n1)CCN(C(=O)CNC(=O)/C=C/c1ccc(C(F)(F)F)cc1)C2 [I-203]
0.819 | C[C@@H]1c2ncnn2CCN1C(=O)CNC(=O)/C=C/c1ccc(C(F)(F)F)cc1 [I-204]
0.088 | CNC(=O)c1nc2n(n1)CCN(C(=O)CNC(=O)/C=C/c1ccc(C(F)(F)F)cc1)C2 [I-205]
0.077 | CN(C)C(=O)c1nc2n(n1)CCN(C(=O)CNC(=O)/C=C/c1ccc(C(F)(F)F)cc1)C2 [I-206]
0.324 | O=C(/C=C/c1ccc(C(F)(F)F)cc1)NCC(=O)N1CCn2ncnc2C12CC2 [I-207]
0.05 | CC(O)c1cc2n(n1)CCN(C(=O)CNC(=O)/C=C/c1ccc(C(F)(F)F)cc1)C2 (stereo not shown) [I-208]
0.032 | Cc1nnc(CN(CC2(F)CC2)C(=O)CNC(=O)/C=C/c2ccc(C(F)(F)F)cc2)o1 [I-209]
0.165 | COCC(C)N(Cc1nnc(C)o1)C(=O)CNC(=O)/C=C/c1ccc(C(F)(F)F)cc1 (stereo not shown) [I-210]
0.061 | CCc1nnc(CN(CC2(F)CC2)C(=O)CNC(=O)/C=C/c2ccc(C(F)(F)F)cc2)o1 [I-211]
0.043 | Cc1nnc(CN(CC2(F)CCC2)C(=O)CNC(=O)/C=C/c2ccc(C(F)(F)F)cc2)o1 [I-212]
0.108 | O=C(/C=C/c1ccc(C(F)(F)F)cc1)NCC(=O)N1CC[C@H](Cn2cccn2)C1 [I-213]
0.728 | O=C(/C=C/c1ccc(C(F)(F)F)cc1)NCC(=O)N1CC[C@@H](Cn2cccn2)C1 [I-214]
0.473 | CNC(=O)[C@H]1C[C@H](n2cccn2)CN1C(=O)CNC(=O)/C=C/c1ccc(C(F)(F)F)cc1 [I-215]
0.161 | CNC(=O)[C@@H]1C[C@H](n2cccn2)CN1C(=O)CNC(=O)/C=C/c1ccc(C(F)(F)F)cc1 [I-216]
0.114 | COC1CN(C(=O)CNC(=O)/C=C/c2ccc(C(F)(F)F)cc2)Cc2ccc(Br)cc21 (stereo not shown) [I-217]
0.355 | CCC1Cn2ncnc2CN1C(=O)CNC(=O)/C=C/c1ccc(C(F)(F)F)cc1 (stereo not shown) [I-218]
0.262 | COCC1Cn2ncnc2CN1C(=O)CNC(=O)/C=C/c1ccc(C(F)(F)F)cc1 (stereo not shown) [I-219]
0.043 | NS(=O)(=O)c1ccc2c(c1)CCN(C(=O)CNC(=O)/C=C/c1ccc(C(F)(F)F)cc1)C2 [I-220]
0.044 | CNS(=O)(=O)c1ccc2c(c1)CCN(C(=O)CNC(=O)/C=C/c1ccc(C(F)(F)F)cc1)C2 [I-221]
0.033 | O=C(/C=C/c1ccc(C(F)(F)F)cc1)NCC(=O)N1CCn2ncc(C(=O)N3CCCC3)c2C1 [I-222]

IC50 [µM] | SMILES
0.041 | CCN(CC)C(=O)c1cnn2c1CN(C(=O)CNC(=O)/C=C/c1ccc(C(F)(F)F)cc1)CC2 [I-223]
0.044 | NC(=O)c1cnn2c1CN(C(=O)CNC(=O)/C=C/c1ccc(C(F)(F)F)cc1)CC2 [I-224]
0.044 | CNC(=O)c1cnn2c1CN(C(=O)CNC(=O)/C=C/c1ccc(C(F)(F)F)cc1)CC2 [I-225]
0.067 | CN(C)C(=O)c1cnn2c1CN(C(=O)CNC(=O)/C=C/c1ccc(C(F)(F)F)cc1)CC2 [I-226]
0.034 | O=C(/C=C/c1ccc(C(F)(F)F)cc1F)NCC(=O)N1CCc2cc(Br)cc(F)c2C1 [I-236]
0.024 | O=C(/C=C/c1ccc(C(F)(F)F)cc1)NCC(=O)N1CCc2cc(Br)ccc21 [I-260]
0.223 | O=C(/C=C/c1ccc(C(F)(F)F)cc1)NCC(=O)N1CCc2c(ccc(C(=O)O)c2F)C1 [I-261, 5-fluoro-2-[2-[[(E)-3-[4-(trifluoromethyl)phenyl]prop-2-enoyl]amino]acetyl]-3,4-dihydro-1H-isoquinoline-6-carboxylic acid]
0.435 | O=C(/C=C/c1ccc(C(F)(F)F)cc1)NCC(=O)N1CCc2cc(C(=O)O)c(F)cc2C1 [I-262]
0.2 | O=C(/C=C/c1ccc(C(F)(F)F)cc1)NCC(=O)N1CCc2nc(C(=O)O)ccc2C1 [I-263]
0.055 | O=C(/C=C/c1ccc(C(F)(F)F)cc1)NCC(=O)N1CCc2cc(C(=O)O)ncc2C1 [I-264]
0.066 | O=C(/C=C/c1ccc(C(F)(F)F)cc1)NCC(=O)N1CCn2nc(C(=O)O)c(-c3ccc(C(F)(F)F)cc3)c2C1 [I-265]
0.133 | O=C(/C=C/c1ccc(C(F)(F)F)cc1)NCC(=O)N1CCn2nc(C(=O)O)c(C3CCCCC3)c2C1 [I-266]
0.083 | O=C(/C=C/c1ccc(C(F)(F)F)cc1)NCC(=O)N1CCn2nc(C(=O)O)c(-c3ccc(F)cc3)c2C1 [I-267]
0.079 | O=C(/C=C/c1ccc(C(F)(F)F)cc1)NCC(=O)N1CCn2nc(C(=O)O)c(C3CC3)c2C1 [I-268]
0.145 | O=C(/C=C/c1ccc(C(F)(F)F)cc1)NCC(=O)N1CCn2nc(C(=O)O)c(Br)c2C1 [I-269]
0.168 | O=C(/C=C/c1ccc(C(F)(F)F)cc1)NCC(=O)N1CCc2ccc(C(=O)O)cc2C1 [I-270]
0.699 | O=C(/C=C/c1ccc(C(F)(F)F)cc1)NCC(=O)N1CCc2c(cccc2C(=O)O)C1 [I-271]
0.141 | O=C(/C=C/c1ccc(S(F)(F)(F)(F)F)cc1)NCC(=O)N1CCn2nc(C(=O)O)cc2C1 [I-272]
0.125 | O=C(/C=C/c1ccc(C(F)(F)F)cc1)NCC(=O)N1CCn2nc(C(=O)O)cc2C1 [I-273]
0.531 | O=C(/C=C/c1ccc(C(F)(F)F)cc1)NCC(=O)N1CCn2ncc(C(=O)O)c2C1 [I-274]
0.087 | O=C(/C=C/c1ccc(S(F)(F)(F)(F)F)cc1)NCC(=O)N1CCc2cc(C(=O)O)ccc2C1 [I-276, 2-[2-[[(E)-3-[4-(pentafluoro-A6-sulfanyl)phenyl]prop-2-enoyl]amino]acetyl]-3,4-dihydro-1H-isoquinoline-6-carboxylic acid]
0.143 | O=C(/C=C/c1ccc(C(F)(F)F)cc1)NCC(=O)N1CCc2cc(C(=O)O)ccc2C1 [I-277]
